Read-outs that look alike come from different tables or passages of the source. Starred links: 1 amine or outer side, 2 acyl side, 3 side chain; linkers in the order of their positions; H or OH if unused. Positions of bridges follow the written chain, without caps; N, C: chain ends. Non-standard residues stand in square brackets, D forms with d. Residues, ends and D or L forms follow the SMILES beside them. X1 = CCNCCC[C@H](N[*:1])C(=O)[*:2]; Orn(Pr) = CCCNCCC[C@H](N)C(=O)O
How the values were obtained:
[1] = test system: anaesthetised Sprague-Dawley male rats; assay: in vivo duration of action, blood pressure test in anaesthetised rats; parameters: species or system rat; settings: ratio of decay rate of diastolic blood pressure response, AVP 0.1 nmol/kg i.v. to equieffective dose of compound; dibenamine-pretreated rats
Description: Blood pressure tests were carried out on anaesthetised Sprague-Dawley male rats (weighing 270-300 g) with catheterised jugular vein and carotid artery. The catheterised carotid artery was used to continuously monitor blood pressure and the jugular vein was used for administration of the compounds tested. Rats received intravenous injections of dibenamine prior to dosing to enhance their responsiveness to V1a receptor agonists (cf. Dekanski, J., Br. J. Pharmacol. 1952, 7, 567-572). […] Dosing intervals were set as time for the blood pressure to decrease to a stable baseline.
Determination of duration of action was based on the decay rate of diastolic arterial blood pressure transient increase. Specifically, for an exponential decay of plasma concentration, it can be shown that, if the response is measured beyond the distribution phase, the rate of decay near the EC50 is linear and inversely proportional to the elimination half-life (Rowland, M. and Tozer, T. in “Clinical Pharmacokinetics, Concepts and Applications”, 3rd ed., Lippincott Williams & Wilkins, Philadelphia, 1995).

[2] = molecular target: T1, human oxytocin (hOT) receptor (Homo sapiens, UniProt P30559); assay: luciferase-based transcriptional reporter assay, selectivity hOT versus hV1a; format: cell-based
T1 construct: expressed in transfected cells
T1 sequence (P30559 1-389): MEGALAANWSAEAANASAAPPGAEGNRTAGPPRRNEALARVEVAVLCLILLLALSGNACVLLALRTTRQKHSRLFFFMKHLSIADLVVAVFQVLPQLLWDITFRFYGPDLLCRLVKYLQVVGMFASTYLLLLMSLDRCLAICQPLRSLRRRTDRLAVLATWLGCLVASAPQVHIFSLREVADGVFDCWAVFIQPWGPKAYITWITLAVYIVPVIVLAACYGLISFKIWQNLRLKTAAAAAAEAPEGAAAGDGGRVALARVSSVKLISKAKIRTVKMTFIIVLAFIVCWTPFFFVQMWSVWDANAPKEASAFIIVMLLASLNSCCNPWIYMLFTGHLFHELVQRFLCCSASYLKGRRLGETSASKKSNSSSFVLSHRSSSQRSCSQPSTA

hV1a receptor = molecular target: T2, hV1a receptor (Homo sapiens, UniProt P37288); assay: hV1a receptor transcriptional reporter (luciferase) agonist assay; format: cell-based
T2 construct: expressed in transfected cells; host or cells: HEK-293

[3] = class symbol, agonist efficacy at hOT receptor compared to AVP
[4] = HEK-293 cells transiently transfected with hV1a receptor, 5 hours exposure, geometric mean, read-out: EC50 hV1a receptor

T2 sequence (P37288 whole entry): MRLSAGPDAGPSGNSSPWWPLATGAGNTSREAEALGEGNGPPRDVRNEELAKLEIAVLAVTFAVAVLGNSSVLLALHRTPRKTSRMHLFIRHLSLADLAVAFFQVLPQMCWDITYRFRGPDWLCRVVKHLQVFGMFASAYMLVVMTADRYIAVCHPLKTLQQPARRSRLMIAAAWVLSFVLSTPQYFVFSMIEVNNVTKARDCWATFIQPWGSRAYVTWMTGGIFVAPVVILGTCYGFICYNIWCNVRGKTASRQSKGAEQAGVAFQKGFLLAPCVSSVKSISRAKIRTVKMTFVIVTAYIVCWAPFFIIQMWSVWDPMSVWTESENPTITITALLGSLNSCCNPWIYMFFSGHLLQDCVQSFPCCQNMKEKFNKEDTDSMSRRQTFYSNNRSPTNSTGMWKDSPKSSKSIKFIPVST

CCNCCC[C@H](NC(=O)[C@@H]1CCCN1C(=O)[C@@H]1CSSC[C@H](N)C(=O)N[C@@H](Cc2ccccc2)C(=O)N[C@@H]([C@@H](C)CC)C(=O)N[C@@H](CC(N)=O)C(=O)N[C@@H](CC(N)=O)C(=O)N1)C(=O)NCC(N)=O [Compound 47] (H-CFINNCP[X1]G-NH2; disulfide 1-6; N-terminus and C-terminus assumed)
in vivo duration relative to AVP [1]: 1.6
selectivity hOT/hV1a [2, 3]: + (selective hV1a receptor agonist; EC50 hOT/hV1a ratio not determined due to very low agonist efficacy (<30% compared to AVP) at the hOT receptor)
EC50 (hV1a receptor; [4]): 0.99 nM

CCCNCCC[C@H](NC(=O)[C@@H]1CCCN1C(=O)[C@@H]1CSSC[C@H](N)C(=O)N[C@@H](Cc2ccccc2)C(=O)N[C@@H]([C@@H](C)CC)C(=O)N[C@@H](CC(N)=O)C(=O)N[C@@H](CC(N)=O)C(=O)N1)C(=O)NCC(N)=O [Compound 50] (H-CFINNCP[Orn(Pr)]G-NH2; disulfide 1-6; N-terminus and C-terminus assumed)
in vivo duration relative to AVP [1]: 2.4
selectivity hOT/hV1a ([2]; EC50 ratio): 43
EC50 (hV1a receptor; [4]): 1.52 nM

NCCCC[C@H](NC(=O)[C@@H]1CCCN1C(=O)[C@@H]1CSSC[C@H](NC(=O)CNC(=O)CNC(=O)CN)C(=O)N[C@@H](Cc2ccc(O)cc2)C(=O)N[C@@H](Cc2ccccc2)C(=O)N[C@@H](CCC(N)=O)C(=O)N[C@@H](CC(N)=O)C(=O)N1)C(=O)NCC(N)=O [terlipressin, reference compound] (H-GGGCYFQNCPKG-NH2; disulfide 4-9)
in vivo duration relative to AVP [1]: 9.1
selectivity hOT/hV1a [2, 3]: + (selective hV1a receptor agonist; EC50 hOT/hV1a ratio not determined due to very low agonist efficacy (<30% compared to AVP) at the hOT receptor)
EC50 (hV1a receptor): 82.1 nM
